Laboratory results from ChEMBL document CHEMBL3885881, “DrugMatrix”.

Species: Rattus norvegicus
Assay: DrugMatrix - Regimen: Daily Repeat
Format: toxicity, organism-based, Sprague-Dawley
Design: regimen Daily Repeat, gender Male, age 6-8 weeks
Conditions: in vivo, po, route oral GAVAGE, vehicle .5 % CMC; for ABSOLUTE BASOPHIL / ABSOLUTE EOSINOPHIL / ABSOLUTE LYMPHOCYTE / ABSOLUTE MONOCYTE / ABSOLUTE SEGMENTED NEUTROPHIL / BASOPHIL / EOSINOPHIL / ERYTHROCYTE COUNT / HEMATOCRIT / HEMOGLOBIN / LEUKOCYTE COUNT / LYMPHOCYTE / MEAN CORPUSCULAR HEMOGLOBIN / MEAN CORPUSCULAR HEMOGLOBIN CONCENTRATION / MEAN CORPUSCULAR VOLUME / MONOCYTE / NEUTROPHIL / NUCLEATED RED BLOOD CELLS / PLATELET COUNT: tissue Blood; for ALANINE AMINOTRANSFERASE / ALBUMIN / ALKALINE PHOSPHATASE / ASPARTATE AMINOTRANSFERASE / BLOOD UREA NITROGEN / CARBON DIOXIDE / CHLORIDE / CHOLESTEROL / CREATINE PHOSPHOKINASE / CREATININE / GLUCOSE / LACTATE DEHYDROGENASE / LIPASE / PHOSPHORUS / POTASSIUM / SODIUM / TOTAL BILIRUBIN / TOTAL PROTEIN / URIC ACID: tissue Plasma
[1] = 80 mg/kg, 72 h, dose level Low, time 3 day
[2] = 80 mg/kg, 120 h, dose level Low, time 5 day
[3] = 1500 mg/kg, 72 h, dose level High, time 3 day
[4] = 1500 mg/kg, 120 h, dose level High, time 5 day

O=c1cnn([C@@H]2O[C@H](CO)[C@@H](O)[C@H]2O)c(=O)[nH]1 [6-AZAURIDINE]
ABSOLUTE BASOPHIL [1]: 0 CELLS/uL
ABSOLUTE EOSINOPHIL [1]: 0 CELLS/uL
ABSOLUTE LYMPHOCYTE [1]: 15386 CELLS/uL
ABSOLUTE MONOCYTE [1]: 95.33 CELLS/uL
ABSOLUTE SEGMENTED NEUTROPHIL [1]: 852 CELLS/uL
BASOPHIL [1]: 0%
EOSINOPHIL [1]: 0%
ERYTHROCYTE COUNT [1]: 5.24 x10E6/uL
HEMATOCRIT [1]: 34.9%
HEMOGLOBIN [1]: 13.33 G/DL
LEUKOCYTE COUNT [1]: 16.33 x10E3/uL
LYMPHOCYTE [1]: 94%
MEAN CORPUSCULAR HEMOGLOBIN [1]: 25.47 pg
MEAN CORPUSCULAR HEMOGLOBIN CONCENTRATION [1]: 38.2 G/DL
MEAN CORPUSCULAR VOLUME [1]: 66.6 fL
MONOCYTE [1]: 0.67%
NEUTROPHIL [1]: 5.33%
NUCLEATED RED BLOOD CELLS [1]: 0.33 /100WBC
PLATELET COUNT [1]: 1177.67 x10E3/uL
ALANINE AMINOTRANSFERASE [1]: 32.67 u/L
ALBUMIN [1]: 4.23 G/DL
ALKALINE PHOSPHATASE [1]: 410.67 u/L
ASPARTATE AMINOTRANSFERASE [1]: 74.33 u/L
BLOOD UREA NITROGEN [1]: 15.33 mg/dL
CARBON DIOXIDE [1]: 25 mmol/L
CHLORIDE [1]: 106.67 MEQ/L
CHOLESTEROL [1]: 73.67 mg/dL
CREATINE PHOSPHOKINASE [1]: 134.33 u/L
CREATININE [1]: 0.2 mg/dL
GLUCOSE [1]: 173.33 mg/dL
LACTATE DEHYDROGENASE [1]: 86.67 u/L
LIPASE [1]: 10.33 u/L
PHOSPHORUS [1]: 12.67 mg/dL
POTASSIUM [1]: 6.8 MEQ/L
SODIUM [1]: 148.73 MEQ/L
TOTAL BILIRUBIN [1]: 0.2 mg/dL
TOTAL PROTEIN [1]: 5.93 G/DL
URIC ACID [1]: 1.7 mg/dL
ABSOLUTE BASOPHIL [2]: 0 CELLS/uL
ABSOLUTE EOSINOPHIL [2]: 0 CELLS/uL
ABSOLUTE LYMPHOCYTE [2]: 12013.67 CELLS/uL
ABSOLUTE MONOCYTE [2]: 153.67 CELLS/uL
ABSOLUTE SEGMENTED NEUTROPHIL [2]: 1099.33 CELLS/uL
BASOPHIL [2]: 0%
EOSINOPHIL [2]: 0%
ERYTHROCYTE COUNT [2]: 5.94 x10E6/uL
HEMATOCRIT [2]: 37.2%
HEMOGLOBIN [2]: 13.73 G/DL
LEUKOCYTE COUNT [2]: 13.27 x10E3/uL
LYMPHOCYTE [2]: 90.67%
MEAN CORPUSCULAR HEMOGLOBIN [2]: 23.2 pg
MEAN CORPUSCULAR HEMOGLOBIN CONCENTRATION [2]: 36.93 G/DL
MEAN CORPUSCULAR VOLUME [2]: 62.77 fL
MONOCYTE [2]: 1.33%
NEUTROPHIL [2]: 8%
NUCLEATED RED BLOOD CELLS [2]: 0.33 /100WBC
PLATELET COUNT [2]: 1474.67 x10E3/uL
ALANINE AMINOTRANSFERASE [2]: 38 u/L
ALBUMIN [2]: 4.23 G/DL
ALKALINE PHOSPHATASE [2]: 363.67 u/L
ASPARTATE AMINOTRANSFERASE [2]: 88.33 u/L
BLOOD UREA NITROGEN [2]: 20.33 mg/dL
CARBON DIOXIDE [2]: 22 mmol/L
CHLORIDE [2]: 104.33 MEQ/L
CHOLESTEROL [2]: 68 mg/dL
CREATINE PHOSPHOKINASE [2]: 230.33 u/L
CREATININE [2]: 0.22 mg/dL
GLUCOSE [2]: 166.67 mg/dL
LACTATE DEHYDROGENASE [2]: 119.33 u/L
LIPASE [2]: 10.33 u/L
PHOSPHORUS [2]: 13.2 mg/dL
POTASSIUM [2]: 6.55 MEQ/L
SODIUM [2]: 146.7 MEQ/L
TOTAL BILIRUBIN [2]: 0.13 mg/dL
TOTAL PROTEIN [2]: 6.17 G/DL
URIC ACID [2]: 2.23 mg/dL
ABSOLUTE BASOPHIL [3]: 0 CELLS/uL
ABSOLUTE EOSINOPHIL [3]: 0 CELLS/uL
ABSOLUTE LYMPHOCYTE [3]: 9340.33 CELLS/uL
ABSOLUTE MONOCYTE [3]: 29.33 CELLS/uL
ABSOLUTE SEGMENTED NEUTROPHIL [3]: 363.67 CELLS/uL
BASOPHIL [3]: 0%
EOSINOPHIL [3]: 0%
ERYTHROCYTE COUNT [3]: 5.26 x10E6/uL
HEMATOCRIT [3]: 32.03%
HEMOGLOBIN [3]: 12.07 G/DL
LEUKOCYTE COUNT [3]: 9.73 x10E3/uL
LYMPHOCYTE [3]: 96%
MEAN CORPUSCULAR HEMOGLOBIN [3]: 22.9 pg
MEAN CORPUSCULAR HEMOGLOBIN CONCENTRATION [3]: 37.7 G/DL
MEAN CORPUSCULAR VOLUME [3]: 60.9 fL
MONOCYTE [3]: 0.33%
NEUTROPHIL [3]: 3.67%
NUCLEATED RED BLOOD CELLS [3]: 0 /100WBC
PLATELET COUNT [3]: 1317.67 x10E3/uL
ALANINE AMINOTRANSFERASE [3]: 17.33 u/L
ALBUMIN [3]: 4.3 G/DL
ALKALINE PHOSPHATASE [3]: 341 u/L
ASPARTATE AMINOTRANSFERASE [3]: 104.67 u/L
BLOOD UREA NITROGEN [3]: 15.33 mg/dL
CARBON DIOXIDE [3]: 18.67 mmol/L
CHLORIDE [3]: 104.33 MEQ/L
CHOLESTEROL [3]: 69.33 mg/dL
CREATINE PHOSPHOKINASE [3]: 704 u/L
CREATININE [3]: 0.25 mg/dL
GLUCOSE [3]: 179.67 mg/dL
LACTATE DEHYDROGENASE [3]: 167.67 u/L
LIPASE [3]: 10 u/L
PHOSPHORUS [3]: 12.03 mg/dL
POTASSIUM [3]: 6.43 MEQ/L
SODIUM [3]: 147.5 MEQ/L
TOTAL BILIRUBIN [3]: 0.2 mg/dL
TOTAL PROTEIN [3]: 5.87 G/DL
URIC ACID [3]: 1.67 mg/dL
ABSOLUTE BASOPHIL [4]: 0 CELLS/uL
ABSOLUTE EOSINOPHIL [4]: 44.67 CELLS/uL
ABSOLUTE LYMPHOCYTE [4]: 13100 CELLS/uL
ABSOLUTE MONOCYTE [4]: 44.67 CELLS/uL
ABSOLUTE SEGMENTED NEUTROPHIL [4]: 1177.33 CELLS/uL
BASOPHIL [4]: 0%
EOSINOPHIL [4]: 0.33%
ERYTHROCYTE COUNT [4]: 4.96 x10E6/uL
HEMATOCRIT [4]: 30%
HEMOGLOBIN [4]: 11.57 G/DL
LEUKOCYTE COUNT [4]: 14.37 x10E3/uL
LYMPHOCYTE [4]: 91%
MEAN CORPUSCULAR HEMOGLOBIN [4]: 23.37 pg
MEAN CORPUSCULAR HEMOGLOBIN CONCENTRATION [4]: 38.53 G/DL
MEAN CORPUSCULAR VOLUME [4]: 60.57 fL
MONOCYTE [4]: 0.33%
NEUTROPHIL [4]: 8.33%
NUCLEATED RED BLOOD CELLS [4]: 0 /100WBC
PLATELET COUNT [4]: 1665.67 x10E3/uL
ALANINE AMINOTRANSFERASE [4]: 14.33 u/L
ALBUMIN [4]: 3.5 G/DL
ALKALINE PHOSPHATASE [4]: 153 u/L
ASPARTATE AMINOTRANSFERASE [4]: 98.33 u/L
BLOOD UREA NITROGEN [4]: 16.33 mg/dL
CARBON DIOXIDE [4]: 33 mmol/L
CHLORIDE [4]: 105.33 MEQ/L
CHOLESTEROL [4]: 68.67 mg/dL
CREATINE PHOSPHOKINASE [4]: 888.33 u/L
CREATININE [4]: 0.12 mg/dL
GLUCOSE [4]: 159 mg/dL
LACTATE DEHYDROGENASE [4]: 129 u/L
LIPASE [4]: 9.33 u/L
PHOSPHORUS [4]: 11.03 mg/dL
POTASSIUM [4]: 6.72 MEQ/L
SODIUM [4]: 145.83 MEQ/L
TOTAL BILIRUBIN [4]: 0.2 mg/dL
TOTAL PROTEIN [4]: 4.83 G/DL
URIC ACID [4]: 1.5 mg/dL
